Experimental data taken from patent publication US10064865B2, “Composition comprising phosphodiesterase type 5 inhibitor for inhibiting apoptosis of nerve cells” (ARIBIO INC., priority 2012, dated 2018).

What was measured:
Assay type in all cases: in vivo, Sprague-Dawley (SD) rats
[1] = tested on: caspase-3; test: Example 1 immunohistochemistry: caspase-3-immunoreactive cells; settings: for Numbers of neurons: Caspase-3+: 29 days after neuron apoptosis
Protocol: (§1) The induction of neuron apoptosis was carried out by damaging the right hemisphere of the brain of animals. Specifically, animals were anesthetized with 2 or 3% isoflurane in the mixture of 70% N2O and 28.5% O2, and were maintained with 1 to 1.5% isoflurane in the mixture of 70% N2O and 28.5% O2. After that the temporalis muscle was bisected and reflected through an incision made midway between the eye and the eardrum canal. The proximal MCA was exposed through a subtemporal craniectomy by microdental drills without removing the zygomatic arch and without transecting the facial nerve. […] Mortality was less than 5%. For sham control, all procedures were performed in the same way, with the exception of the occlusion of the MCA.
(§2) After deparraffinized of cerebral histological paraffin sections, citrate buffer antigen (epitope) retrieval pretreatment were conducted as previously (Shi S R et al., J Histochem Cytochem. 41:1599-604(1993)). Briefly, pre-heat water bath with staining dish containing 10 mM citrate buffers (pH 6.0) until temperature reaches 95-100° C. Immerse slides in the staining dish and place the lid loosely on the staining dish. Incubate for 20 minutes and turn off the water bath. Place the staining dish at room temperature and allow the slides to cool for 20 minutes. After epitope retrivals, sections were immunostained as following steps:
(§3) Incubate sections with methanol and 0.3% H2O2 for 30 minutes for blocking endogenous peroxidase activity at room temperature and rinse in 0.01M phosphate buffered saline (PBS; pH 7.2) for 3 times;
(§4) Incubate sections with normal horse serum blocking solution (Vector Lab. Inc., Burlingame, USA. Dilution 1:100) for 1 hour to block non-specific binding of immunoglobulin at room temperature in humidity chamber, and rinse in 0.01M PBS for 3 times;
(§5) Incubate sections with primary antisera for overnight at 4° C. in humidity chamber and rinse in 0.01M PBS for 3 times;
(§6) Incubate sections with biotinylated universal secondary antibody (Vector Lab., Dilution 1:50) for 1 hour at room temperature in humidity chamber and rinse in 0.01M PBS for 3 times;
(§7) Incubate sections with ABC reagents (Vectastain Elite ABC Kit, Vector Lab., Dilution 1:50) for 1 hour at room temperature in humidity chamber and rinse in 0.01M PBS for 3 times;
(§8) Incubate sections in Peroxidae substrate kit (Vector Lab.) for 5 min at room temperature and rinse in 0.01M PBS for 3 times;
(§9) Counterstain with Mayer's hematoxylin solution and rinse in running tap water for 30 minutes;
(§10) Dehydrate through 95% ethanol for 2 minutes, 100% ethanol for 3 times and Clear in xylene for two times; and
(§11) Coverslip with permanent mounting medium and observed under light microscope (Nikkon, Japan).
(§12) Histomorphometry: The nerve cells occupied by over 10% of immunoreactivities, the density, of each antiserum, caspase-3 and PARP were regarded as immunoreactive. In the present study, the numbers of each caspase-3 and PARP-immunoreactive cells among mm^2 of ipsilateral peri-infarct/defect cerebral cortex were measured using a computer-assisted image analysis program, respectively.
(§13) All data were expressed as mean±standard deviation (S.D.) of ten rats. Multiple comparison tests for different dose groups were conducted. Variance homogeneity was examined using the Levene test (Levene A, Clin Otalary, 1981; 6:145-51). […] Statistical analyses were conducted using SPSS (Release 14K, SPSS Inc., USA; Ludbrook, Clin Exp Pharmacol Physiol, 1997; 24:294-6). In addition, the percent changes between neuron apoptosis control and mirodenafil treated rats were calculated to help the understanding of the efficacy of test material as follow equation 3. Percentage changes as compared with neuron apoptosis control (%)=[((Data of mirodenafil treated groups−Data of neuron apoptosis control)/Data of neuron apoptosis control)×100] [EQUATION 3]

[2] = tested on: PARP; test: Example 1 immunohistochemistry: PARP-immunoreactive cells; settings: for Numbers of neurons: PARP+: 29 days after neuron apoptosis
Protocol: as §1, §2, §3, §4, §5, §6, §7, §8, §9, §10, §11, §12, §13

[3] = Example 1 body weight measurements; settings: for Body weights at 1 day before surgery / Body weights at surgery [A]: before treatment, in g
Protocol: Changes of body weight were measured at 1 day before neuron apoptosis, the day of neuron apoptosis, 1, 7 14, 21, 28 and 29 days after neuron apoptosis using an automatic electronic balance. To reduce the individual differences, the body weight gains after neuron apoptosis and continuous oral treatment of materials were calculated as follows. Body weight gains (g) during 29 days after neuron apoptosis=(Body weight at the 29 days after neuron apoptosis−body weight at the day of neuron apoptosis) [EQUATION 2]
as §13

[4] = tested on: neuron apoptosis-operated rats; test: Example 2 forelimb placing test
Protocol: Sensorimotor function was evaluated by use of limb placing (de Ryck M et al., Stroke. 20:1383-90(1989)) and body swing (Borlongan and Sanberg, J Neurosci. 15:5372-8(1995)) tests. These tests were performed at 1 and 28 days after neuron apoptosis. The investigator performing the surgery and behavioral assessments was blinded to treatment assignment.
Limb placing test: Forelimb and hindlimb placement were assessed independently. For the forelimb placing test, the rats were held by their torso with their forepaws hanging free and moved slowly toward the edge of a tabletop, stopping short of touching the vibrissae (for vision-induced placing), touching the vibrissae (for vibrissae-induced placing), making light contact with the front of the forepaw to the edge of the tabletop (for tactile-induced placing), and pressing the forepaws to the edge of the table with increased pressure (for proprioceptive-induced placing). Hindlimb placing was conducted in the same manner as above but with tactile and proprioceptive stimulation applied to the front/top of each hindlimb. Each limb for placing in response to visual, vibrissae, tactile, and proprioceptive stimulation are scored in the following manner: normal performance=0 points; performance with unilateral limb=1 point; performance with a delay (2 seconds) and/or incomplete=2 point; no performance=3 points. A total of 12 points in forelimb placing test and 6 points in hindlimb placing test means maximal neurological deficit, and 0 points means normal performance.
All data were expressed as mean±standard deviation (S.D.) of ten rats. Multiple comparison tests for different dose groups were conducted. Variance homogeneity was examined using the Levene test (Levene A, Clin Otalary, 1981; 6:145-51). […] In addition, the percent changes as compared with neuron apoptosis control and mirodenafil treated rats were calculated to help the understanding of the efficacy of test substances as follow Equation 6 and 7. […]

## CCCOc1ccc(S(=O)(=O)N2CCN(CCO)CC2)cc1-c1nc2c(CCC)cn(CC)c2c(=O)[nH]1 [Mirodenafil, mirodenafil]
[1]; 0.5 mg/kg
  numbers of caspase-3-immunoreactive neurons, change as compared with neuron apoptosis control: −33.43%
[1]; 0.5 mg/kg s.c. once a day
  Numbers of neurons: Caspase-3+: 43.80 ± 10.37^ab cells/mm^2 of cerebral cortex
[1]; 1 mg/kg
  numbers of caspase-3-immunoreactive neurons, change as compared with neuron apoptosis control: −76.44%
[1]; 1 mg/kg s.c. once a day
  Numbers of neurons: Caspase-3+: 15.50 ± 3.57^ab cells/mm^2 of cerebral cortex
[1]; 2 mg/kg
  numbers of caspase-3-immunoreactive neurons, change as compared with neuron apoptosis control: −77.96%
[1]; 2 mg/kg s.c. once a day
  Numbers of neurons: Caspase-3+: 14.50 ± 3.69^ab cells/mm^2 of cerebral cortex
[2]; 0.5 mg/kg
  numbers of PARP-immunoreactive neurons, change as compared with neuron apoptosis control: −37.58%
[2]; 0.5 mg/kg s.c. once a day
  Numbers of neurons: PARP+: 47.50 ± 9.44^ab cells/mm^2 of cerebral cortex
[2]; 1 mg/kg
  numbers of PARP-immunoreactive neurons, change as compared with neuron apoptosis control: −76.74%
[2]; 1 mg/kg s.c. once a day
  Numbers of neurons: PARP+: 17.70 ± 2.00^ab cells/mm^2 of cerebral cortex
[2]; 2 mg/kg
  numbers of PARP-immunoreactive neurons, change as compared with neuron apoptosis control: −78.32%
[2]; 2 mg/kg s.c. once a day
  Numbers of neurons: PARP+: 16.50 ± 3.81^ab cells/mm^2 of cerebral cortex
[3]; 0.5 mg/kg group
  Body weights at 1 day before surgery: 540.70 ± 23.66
  Body weights at surgery [A]: 510.20 ± 26.08
[3]; 1 mg/kg
  body weight gains during 29 days, change as compared with neuron apoptosis control: 218.52%
[3]; 1 mg/kg group
  Body weights at 1 day before surgery: 539.70 ± 27.54
  Body weights at surgery [A]: 510.30 ± 28.32
[3]; 2 mg/kg
  body weight gains during 29 days, change as compared with neuron apoptosis control: 155.74%
[3]; 2 mg/kg group
  Body weights at 1 day before surgery: 543.30 ± 26.39
  Body weights at surgery [A]: 513.40 ± 27.21
[4]; 1 mg/kg from 24 hrs after surgery
  forelimb placing test scores at 28 days, change as compared with neuron apoptosis control: −57.41%
[4]; 1 mg/kg from 72 hrs after surgery
  forelimb placing test scores at 28 days, change as compared with neuron apoptosis control: −29.63%
[4]; 1 mg/kg from 168 hrs after surgery
  forelimb placing test scores at 28 days, change as compared with neuron apoptosis control: −11.11%
